Tests used:
Assay in all cases: Differential Scanning Fluorimetry (DSF) Tm shift
Type in all cases: binding
[1] = target: T1, CDK2 + Cyclin E (Homo sapiens, UniProt P24941); conditions: CDK2 + Cyclin E; 2 µM protein, 10 µM inhibitor; average of 3 experiments, each in duplicate
T1 construct: CDK2 (P24941); 1–299; His-tag; made in house; host or cells: Escherichia coli

[2] = target: T2, FES Catalytic Domain (Homo sapiens, UniProt P07332); conditions: 2 µM protein, 10 µM inhibitor, average of 3 experiments, each in duplicate
T2 construct: For all of them, we expressed and purified the catalytic domain separately; His-tag; made in house; host or cells: Escherichia coli

[3] = target: SRC Catalytic Domain (Homo sapiens, UniProt P12931); design: For all of them, we expressed and purified the catalytic domain separately; His-tag; made in house; host or cells: Escherichia coli; conditions: 2 µM protein, 10 µM inhibitor, average of 3 experiments, each in duplicate
[4] = target: T3, CDK2 + Cyclin A (Homo sapiens, UniProt P24941); conditions: CDK2 + Cyclin A; 2 µM protein, 10 µM inhibitor; average of 3 experiments, each in duplicate
T3 construct: CDK2 (P24941); 1–299; His-tag; made in house; host or cells: Escherichia coli

[5] = target: T4, STK3 Catalytic domain+SARAH (Homo sapiens, UniProt Q13188); conditions: 2 µM protein, 10 µM inhibitor, average of 3 experiments, each in duplicate
T4 construct: for 8, we also made a longer version containing one or more additional domains; His-tag; made in house; host or cells: Escherichia coli
T4 sequence (Q13188 1-491): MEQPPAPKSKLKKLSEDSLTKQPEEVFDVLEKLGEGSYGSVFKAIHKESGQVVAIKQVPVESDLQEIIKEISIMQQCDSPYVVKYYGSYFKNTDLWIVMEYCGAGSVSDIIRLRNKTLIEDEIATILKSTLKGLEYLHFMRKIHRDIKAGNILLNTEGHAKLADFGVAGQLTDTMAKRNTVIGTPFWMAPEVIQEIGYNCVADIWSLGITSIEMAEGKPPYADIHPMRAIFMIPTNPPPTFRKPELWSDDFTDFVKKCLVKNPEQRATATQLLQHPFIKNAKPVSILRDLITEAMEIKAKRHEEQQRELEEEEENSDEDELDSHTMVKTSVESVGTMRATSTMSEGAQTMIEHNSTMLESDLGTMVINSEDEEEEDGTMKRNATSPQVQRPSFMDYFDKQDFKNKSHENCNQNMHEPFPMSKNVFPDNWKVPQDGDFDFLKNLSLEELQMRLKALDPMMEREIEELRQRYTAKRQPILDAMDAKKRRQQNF

[6] = target: T5, PAK4 Catalytic Domain (Homo sapiens, UniProt O96013); conditions: 2 µM protein, 10 µM inhibitor, average of 3 experiments, each in duplicate
T5 construct: For all of them, we expressed and purified the catalytic domain separately; His-tag; made in house; host or cells: Escherichia coli

[7] = target: T6, CHK2 Catalytic Domain (Homo sapiens, UniProt O96017); conditions: 2 µM protein, 10 µM inhibitor, average of 3 experiments, each in duplicate
T6 construct: For all of them, we expressed and purified the catalytic domain separately; His-tag; made in house; host or cells: Escherichia coli

[8] = target: T7, PAK7 Catalytic Domain (Homo sapiens, UniProt Q9P286); conditions: 2 µM protein, 10 µM inhibitor, average of 3 experiments, each in duplicate
T7 construct: For all of them, we expressed and purified the catalytic domain separately; His-tag; made in house; host or cells: Escherichia coli

[9] = target: T8, DMPK Catalytic Domain (Homo sapiens, UniProt Q09013); conditions: 2 µM protein, 10 µM inhibitor, average of 3 experiments, each in duplicate
T8 construct: For all of them, we expressed and purified the catalytic domain separately; His-tag; made in house; host or cells: Escherichia coli
T8 sequence (Q09013 71-339 limits assumed): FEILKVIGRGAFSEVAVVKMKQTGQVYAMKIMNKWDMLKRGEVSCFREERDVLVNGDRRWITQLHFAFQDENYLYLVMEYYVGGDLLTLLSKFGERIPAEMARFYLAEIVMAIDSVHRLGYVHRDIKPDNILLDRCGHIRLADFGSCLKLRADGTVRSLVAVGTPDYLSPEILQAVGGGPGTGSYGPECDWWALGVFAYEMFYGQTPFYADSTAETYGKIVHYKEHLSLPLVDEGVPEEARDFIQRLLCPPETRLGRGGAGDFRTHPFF

[10] = target: T9, AKT3 Catalytic Domain (Homo sapiens, UniProt Q9Y243); conditions: 2 µM protein, 10 µM inhibitor, average of 3 experiments, each in duplicate
T9 construct: AKT3 (Q9Y243); CD; His-tag; made in house; host or cells: Escherichia coli

[11] = target: T10, FAK2 Catalytic Domain (Homo sapiens, UniProt Q14289); conditions: 2 µM protein, 10 µM inhibitor, average of 3 experiments, each in duplicate
T10 construct: For all of them, we expressed and purified the catalytic domain separately; His-tag; made in house; host or cells: Escherichia coli

[12] = target: SRC Catalytic Domain+SH2+SH3 (Homo sapiens, UniProt P12931); conditions: 2 µM protein, 10 µM inhibitor, average of 3 experiments, each in duplicate
[13] = target: T11, STK3 Catalytic Domain (Homo sapiens, UniProt Q13188); conditions: 2 µM protein, 10 µM inhibitor, average of 3 experiments, each in duplicate
T11 construct: For all of them, we expressed and purified the catalytic domain separately; His-tag; made in house; host or cells: Escherichia coli
T11 sequence (Q13188 27-278 limits assumed): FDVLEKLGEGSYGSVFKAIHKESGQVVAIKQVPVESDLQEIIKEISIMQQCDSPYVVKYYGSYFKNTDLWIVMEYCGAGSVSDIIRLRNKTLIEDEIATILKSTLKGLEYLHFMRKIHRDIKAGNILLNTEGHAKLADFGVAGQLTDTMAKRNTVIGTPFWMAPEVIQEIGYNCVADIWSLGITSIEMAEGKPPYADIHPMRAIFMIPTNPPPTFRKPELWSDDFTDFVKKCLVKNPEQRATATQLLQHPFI

[14] = target: T12, FES Catalytic Domain+SH2 (Homo sapiens, UniProt P07332); conditions: 2 µM protein, 10 µM inhibitor, average of 3 experiments, each in duplicate
T12 construct: for 8, we also made a longer version containing one or more additional domains; His-tag; made in house; host or cells: Escherichia coli

[15] = target: T13, PAK4 Catalytic Domain+PBD (Homo sapiens, UniProt O96013); conditions: 2 µM protein, 10 µM inhibitor, average of 3 experiments, each in duplicate
T13 construct: for 8, we also made a longer version containing one or more additional domains; His-tag; made in house; host or cells: Escherichia coli
T13 sequence (O96013 whole entry, the tested form may be a part): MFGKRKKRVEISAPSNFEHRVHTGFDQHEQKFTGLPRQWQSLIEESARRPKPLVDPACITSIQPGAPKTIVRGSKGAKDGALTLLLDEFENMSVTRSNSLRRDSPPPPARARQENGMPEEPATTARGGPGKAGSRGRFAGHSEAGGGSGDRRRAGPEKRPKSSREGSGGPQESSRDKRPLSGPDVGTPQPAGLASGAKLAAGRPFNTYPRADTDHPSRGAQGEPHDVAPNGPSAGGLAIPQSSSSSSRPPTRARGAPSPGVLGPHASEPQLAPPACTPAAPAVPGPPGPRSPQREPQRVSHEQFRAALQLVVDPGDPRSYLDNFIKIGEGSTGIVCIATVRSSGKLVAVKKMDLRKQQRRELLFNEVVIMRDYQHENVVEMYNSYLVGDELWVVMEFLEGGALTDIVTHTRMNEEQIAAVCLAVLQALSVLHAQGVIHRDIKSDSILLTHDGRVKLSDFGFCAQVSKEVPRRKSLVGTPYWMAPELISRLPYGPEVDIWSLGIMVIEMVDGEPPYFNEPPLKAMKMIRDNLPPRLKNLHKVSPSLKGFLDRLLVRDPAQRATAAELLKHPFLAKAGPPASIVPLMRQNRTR

T10 sequence (Q14289 425-683 limits assumed): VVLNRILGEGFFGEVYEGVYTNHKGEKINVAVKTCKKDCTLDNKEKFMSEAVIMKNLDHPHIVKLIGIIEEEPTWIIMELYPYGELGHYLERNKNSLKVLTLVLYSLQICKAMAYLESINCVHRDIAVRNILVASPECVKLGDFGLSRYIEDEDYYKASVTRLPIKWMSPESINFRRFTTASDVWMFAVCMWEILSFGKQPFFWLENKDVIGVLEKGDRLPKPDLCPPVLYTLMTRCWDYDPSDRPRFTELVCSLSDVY
T6 sequence (O96017 220-486 limits assumed): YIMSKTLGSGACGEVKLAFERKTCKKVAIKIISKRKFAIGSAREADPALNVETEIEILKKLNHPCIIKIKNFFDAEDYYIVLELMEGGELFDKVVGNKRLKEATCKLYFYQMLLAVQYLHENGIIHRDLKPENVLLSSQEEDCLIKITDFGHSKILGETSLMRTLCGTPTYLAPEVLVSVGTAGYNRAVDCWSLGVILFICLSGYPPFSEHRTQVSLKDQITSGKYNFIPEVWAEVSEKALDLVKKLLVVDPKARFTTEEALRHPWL
T7 sequence (Q9P286 449-700 limits assumed): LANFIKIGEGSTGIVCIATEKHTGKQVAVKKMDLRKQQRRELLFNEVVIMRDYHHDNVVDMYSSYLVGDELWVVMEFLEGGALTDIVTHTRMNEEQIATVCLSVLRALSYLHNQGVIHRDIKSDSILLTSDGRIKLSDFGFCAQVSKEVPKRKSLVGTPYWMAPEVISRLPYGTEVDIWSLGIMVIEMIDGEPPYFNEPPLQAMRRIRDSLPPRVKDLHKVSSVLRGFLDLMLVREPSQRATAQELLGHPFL
T5 sequence (O96013 321-572 limits assumed): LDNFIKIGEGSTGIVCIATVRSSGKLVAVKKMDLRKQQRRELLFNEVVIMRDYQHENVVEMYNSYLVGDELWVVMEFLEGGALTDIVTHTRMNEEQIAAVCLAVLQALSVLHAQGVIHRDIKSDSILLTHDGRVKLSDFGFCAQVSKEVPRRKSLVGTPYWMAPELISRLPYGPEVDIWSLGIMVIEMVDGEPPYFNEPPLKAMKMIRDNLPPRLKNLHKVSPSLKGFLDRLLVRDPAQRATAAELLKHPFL
T12 sequence (P07332 448-822 limits assumed): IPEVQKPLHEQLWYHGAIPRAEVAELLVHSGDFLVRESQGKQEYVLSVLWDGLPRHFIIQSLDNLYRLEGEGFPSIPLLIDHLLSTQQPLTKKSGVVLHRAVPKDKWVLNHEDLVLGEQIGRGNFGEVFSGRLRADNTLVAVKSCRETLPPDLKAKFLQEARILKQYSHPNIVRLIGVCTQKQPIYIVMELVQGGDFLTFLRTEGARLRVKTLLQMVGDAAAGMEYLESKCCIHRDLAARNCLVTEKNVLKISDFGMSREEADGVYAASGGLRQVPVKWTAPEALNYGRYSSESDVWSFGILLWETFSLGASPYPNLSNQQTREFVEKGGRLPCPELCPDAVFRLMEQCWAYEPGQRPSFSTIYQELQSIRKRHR
T9 sequence (Q9Y243 122-479): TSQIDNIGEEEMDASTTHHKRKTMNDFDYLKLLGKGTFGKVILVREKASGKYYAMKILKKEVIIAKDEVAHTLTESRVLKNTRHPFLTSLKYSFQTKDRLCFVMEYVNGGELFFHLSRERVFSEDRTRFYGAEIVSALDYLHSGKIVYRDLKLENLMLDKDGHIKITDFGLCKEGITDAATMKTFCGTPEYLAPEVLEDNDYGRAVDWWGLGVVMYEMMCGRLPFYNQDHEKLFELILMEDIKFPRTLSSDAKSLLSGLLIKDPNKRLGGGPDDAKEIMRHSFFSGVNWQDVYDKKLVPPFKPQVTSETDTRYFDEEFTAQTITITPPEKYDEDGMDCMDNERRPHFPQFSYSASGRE
T2 sequence (P07332 561-822 limits assumed): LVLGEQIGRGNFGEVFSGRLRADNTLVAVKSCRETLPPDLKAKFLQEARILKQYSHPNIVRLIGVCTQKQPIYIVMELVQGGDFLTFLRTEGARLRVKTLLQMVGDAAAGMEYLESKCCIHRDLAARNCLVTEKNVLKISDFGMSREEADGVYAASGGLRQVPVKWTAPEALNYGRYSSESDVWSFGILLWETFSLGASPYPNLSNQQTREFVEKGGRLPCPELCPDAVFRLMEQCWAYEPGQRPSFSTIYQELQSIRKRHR

| Compound | Melting temperature (Tm) shift [1] [degrees Celcius] | Melting temperature (Tm) shift [2] [degrees Celcius] | Melting temperature (Tm) shift [3] [degrees Celcius] | Melting temperature (Tm) shift [4] [degrees Celcius] | Melting temperature (Tm) shift [5] [degrees Celcius] | Melting temperature (Tm) shift [6] [degrees Celcius] | Melting temperature (Tm) shift [7] [degrees Celcius] | Melting temperature (Tm) shift [8] [degrees Celcius] | Melting temperature (Tm) shift [9] [degrees Celcius] | Melting temperature (Tm) shift [10] [degrees Celcius] | Melting temperature (Tm) shift [11] [degrees Celcius] | Melting temperature (Tm) shift [12] [degrees Celcius] | Melting temperature (Tm) shift [13] [degrees Celcius] | Melting temperature (Tm) shift [14] [degrees Celcius] | Melting temperature (Tm) shift [15] [degrees Celcius] |
| --- | --- | --- | --- | --- | --- | --- | --- | --- | --- | --- | --- | --- | --- | --- | --- |
| CCn1cnc2c(Nc3cccc(Cl)c3)nc(N[C@H]3CCCC[C@H]3N)nc21 [Cdk1 Inhibitor, CGP74514A] | 3.7 | 1.6 | 1.2 | 4.4 | 1.2 | 5.6 | 1.8 | 5.4 | 1.4 | 0.0 | 1.9 | 1.3 | 1.3 | 0.7 | 8.1 |
| Wee1/Chk1 Inhibitor | 0.8 | 0.2 | 0.1 | 0.2 | 3.7 | 0.7 | 5.9 | 1.0 | 2.2 | 0.1 | 0.3 | 0.1 | 1.1 | 0.2 | 1.5 |
| Chk2 Inhibitor | 1.9 | 3.0 | 0.2 | 2.9 | 3.4 | 0.7 | 8.7 | 0.3 | 1.4 | 0.0 | 2.6 | 0.3 | 2.3 | 0.6 | 0.6 |
| O=C1NC(=O)C(c2c[nH]c3ccccc23)=C1c1c[nH]c2ccccc12 [Bisindolylmaleimide IV] | 0.7 | 0.5 | 0.3 | 0.9 | 2.0 | 0.4 | 4.1 | 0.1 | 2.7 | 0.0 | 0.1 | 0.0 | 0.9 | 0.9 | 0.0 |
| O=C1Cc2c([nH]c3ccc(Br)cc23)-c2ccccc2N1 [Kenpaullone] | 0.3 | 0.4 | 0.4 | 0.4 | 1.5 | 1.4 | 3.4 | 0.7 | 1.9 | 0.0 | 0.3 | 0.2 | 0.7 | 0.0 | 3.6 |
| c1cc(-c2cnn3cc(-c4ccc(OCCN5CCCCC5)cc4)cnc23)ccn1 [AMPK Inhibitor, Compound C] | 0.5 | 1.2 | 0.5 | 1.0 | 0.4 | 0.7 | 1.1 | 0.5 | 1.5 | 0.3 | 0.1 | 0.6 | 0.3 | 0.4 | 0.8 |
| Cc1ccc([N+](=O)[O-])cc1S(=O)(=O)N(C)N=Cc1cnc2ccc(Br)cn12.Cl.O.O [PI 3-Kα Inhibitor VIII] | 0.7 | 3.1 | 0.7 | 4.2 | 4.2 | 3.0 | 2.5 | 1.8 | 3.1 | 1.3 | 1.6 | 0.9 | 2.7 | 1.4 | 2.1 |
| NC(=O)Nc1cc(-c2ccccc2)sc1C(N)=O [IKK-2 Inhibitor XI] | 0.7 | 2.1 | 1.5 | 0.9 | 1.4 | 1.7 | 5.8 | 1.3 | 1.6 | 0.0 | 1.5 | 1.0 | 2.4 | 1.1 | 2.9 |
